Reference: ChEMBL document CHEMBL1201862, “PubChem BioAssay data set” (2004)
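Following 48 hours of exposure in 96-well plates, responses at five concentrations were used to interpolate endpoints linearly. Here, GI50 denotes the concentration required for 50% inhibition of growth.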 Calls of active or inactive are those of the source. Cut-off read from the data, not from the text of the source: active = GI50 up to about 1.1 µM and inactive = higher.

Assays:
Test in all cases: inhibition of tumour cell growth, NCI panel, 48 h
HCT-15 = tested on: HCT-15
HOP-92 = tested on: HOP-92
SF-295 = tested on: SF-295
K562 = tested on: K562
SR = tested on: SR
SK-MEL-2 = tested on: SK-MEL-2
CAKI-1 = tested on: CAKI-1
SN12C = tested on: SN12C
Malme-3M = tested on: Malme-3M
M14 = tested on: M14
SW-620 = tested on: SW-620
IGROV-1 = tested on: IGROV-1
HOP-62 = tested on: HOP-62
LOX IMVI = tested on: LOX IMVI
U-251 = tested on: U-251
BT-549 = tested on: BT-549
EKVX = tested on: EKVX
SF-268 = tested on: SF-268
786-0 = tested on: 786-0
MDA-MB-435 = tested on: MDA-MB-435
PC-3 = tested on: PC-3
ACHN = tested on: ACHN
UACC-62 = tested on: UACC-62
HCT-116 = tested on: HCT-116
RXF 393 = tested on: RXF 393
KM12 = tested on: KM12
OVCAR-5 = tested on: OVCAR-5
NCI/ADR-RES = tested on: NCI/ADR-RES
SK-OV-3 = tested on: SK-OV-3
MOLT-4 = tested on: MOLT-4
HL-60 = tested on: HL-60
OVCAR-4 = tested on: OVCAR-4
HT-29 = tested on: HT-29
MDA-MB-231 = tested on: MDA-MB-231
NCI-H522 = tested on: NCI-H522
DU-145 = tested on: DU-145
COLO 205 = tested on: COLO 205
OVCAR-3 = tested on: OVCAR-3
MDA-N = tested on: MDA-N
Hs-578T = tested on: Hs-578T
OVCAR-8 = tested on: OVCAR-8
RPMI-8226 = tested on: RPMI-8226
NCI-H23 = tested on: NCI-H23
SK-MEL-28 = tested on: SK-MEL-28
UACC-257 = tested on: UACC-257
UO-31 = tested on: UO-31
TK-10 = tested on: TK-10
NCI-H460 = tested on: NCI-H460
NCI-H226 = tested on: NCI-H226
HCC 2998 = tested on: HCC 2998
MCF7 = tested on: MCF7
CCRF-CEM = tested on: CCRF-CEM
SF-539 = tested on: SF-539
A549 = tested on: A549
T47D = tested on: T47D
SNB-19 = tested on: SNB-19
A498 = tested on: A498
SK-MEL-5 = tested on: SK-MEL-5
SNB-75 = tested on: SNB-75

Q: Which GI50 (HCT-15) does the source give for `O=c1c(/C=C/c2c(O)ccc3ccccc23)nnc2sc(-c3cccc([N+](=O)[O-])c3)nn12` here?
A: The GI50 was 4.43 µM.

Q: What about the GI50 (HOP-92) of the same compound?
A: The GI50 was 24.2 µM (inactive).

Q: And the GI50 (SF-295)?
A: Its GI50 is 26.8 µM (inactive).

Q: What about the GI50 (K562) of the same compound?
A: The GI50 was 25.6 µM (inactive).

Q: What about the GI50 (SR) of the same compound?
A: Its GI50 is 4.38 µM (inactive).

Q: What about the GI50 (SK-MEL-2) of the same compound?
A: The GI50 was 5.57 µM (inactive).

Q: And the GI50 (CAKI-1)?
A: Its GI50 is 19.1 µM (inactive).

Q: What about the GI50 (SN12C) of the same compound?
A: The GI50 was 9.33 µM (inactive).

Q: What about the GI50 (Malme-3M) of the same compound?
A: The GI50 was 11.4 µM (inactive).

Q: What about the GI50 (M14) of the same compound?
A: Its GI50 is 10.8 µM (inactive).

Q: What about the GI50 (SW-620) of the same compound?
A: Its GI50 is 3.03 µM (inactive).

Q: And the GI50 (IGROV-1)?
A: The GI50 was 15.3 µM (inactive).

Q: What about the GI50 (HOP-62) of the same compound?
A: Its GI50 is 18.2 µM (inactive).

Q: And the GI50 (LOX IMVI)?
A: The GI50 was 6.56 µM (inactive).

Q: What about the GI50 (U-251) of the same compound?
A: The GI50 was 7.6 µM (inactive).

Q: And the GI50 (BT-549)?
A: Its GI50 is 17.2 µM (inactive).

Q: And the GI50 (EKVX)?
A: Its GI50 is 18.7 µM (inactive).

Q: And the GI50 (SF-268)?
A: Its GI50 is 8.93 µM (inactive).

Q: What about the GI50 (786-0) of the same compound?
A: The GI50 was 7.13 µM (inactive).

Q: What about the GI50 (MDA-MB-435) of the same compound?
A: Its GI50 is 17.1 µM (inactive).

Q: And the GI50 (PC-3)?
A: Its GI50 is 10.1 µM (inactive).

Q: And the GI50 (ACHN)?
A: Its GI50 is 5.12 µM (inactive).

Q: What about the GI50 (UACC-62) of the same compound?
A: The GI50 was 11.4 µM (inactive).

Q: And the GI50 (HCT-116)?
A: Its GI50 is 4.98 µM (inactive).

Q: And the GI50 (RXF 393)?
A: The GI50 was 19.4 µM (inactive).

Q: And the GI50 (KM12)?
A: Its GI50 is 22.1 µM (inactive).

Q: And the GI50 (OVCAR-5)?
A: The GI50 was 33 µM (inactive).

Q: What about the GI50 (NCI/ADR-RES) of the same compound?
A: Its GI50 is 12.3 µM (inactive).

Q: What about the GI50 (SK-OV-3) of the same compound?
A: Its GI50 is 30 µM (inactive).

Q: And the GI50 (MOLT-4)?
A: The GI50 was 3.94 µM (inactive).

Q: And the GI50 (HL-60)?
A: Its GI50 is 2.62 µM (inactive).

Q: What about the GI50 (OVCAR-4) of the same compound?
A: The GI50 was 6.98 µM (inactive).

Q: And the GI50 (HT-29)?
A: The GI50 was 36.4 µM (inactive).

Q: And the GI50 (MDA-MB-231)?
A: The GI50 was 7.33 µM (inactive).

Q: And the GI50 (NCI-H522)?
A: Its GI50 is 9.33 µM (inactive).

Q: And the GI50 (DU-145)?
A: Its GI50 is 8.38 µM (inactive).

Q: What about the GI50 (COLO 205) of the same compound?
A: Its GI50 is 26.5 µM (inactive).

Q: What about the GI50 (OVCAR-3) of the same compound?
A: Its GI50 is 2.73 µM (inactive).

Q: What about the GI50 (MDA-N) of the same compound?
A: The GI50 was 28.7 µM (inactive).

Q: And the GI50 (Hs-578T)?
A: The GI50 was 12.5 µM (inactive).

Q: And the GI50 (OVCAR-8)?
A: Its GI50 is 13.7 µM (inactive).

Q: And the GI50 (RPMI-8226)?
A: The GI50 was 14.6 µM (inactive).

Q: What about the GI50 (NCI-H23) of the same compound?
A: The GI50 was 19.1 µM (inactive).

Q: What about the GI50 (SK-MEL-28) of the same compound?
A: Its GI50 is > 100 µM (inactive).

Q: What about the GI50 (UACC-257) of the same compound?
A: The GI50 was 13.2 µM (inactive).

Q: And the GI50 (UO-31)?
A: Its GI50 is 9.93 µM (inactive).

Q: And the GI50 (TK-10)?
A: The GI50 was 9.29 µM (inactive).

Q: What does the source list for `COc1cccc(C2SCC(=O)N2c2ccc(-c3ccc(-n4c(-c5ccccc5)nc5ccccc5c4=O)cc3)cc2)c1OC` (centres undefined)?
A: GI50 (HCT-15): 52.7 µM; GI50 (HOP-92): 55.8 µM (inactive); GI50 (SF-295): > 100 µM (inactive); GI50 (K562): 73.6 µM (inactive); GI50 (NCI-H460): > 100 µM (inactive); GI50 (SR): 60.1 µM (inactive); GI50 (SK-MEL-2): > 100 µM (inactive); GI50 (NCI-H226): 74.1 µM (inactive); GI50 (HCC 2998): > 100 µM (inactive); GI50 (CAKI-1): 67.8 µM (inactive); GI50 (SN12C): > 100 µM (inactive); GI50 (Malme-3M): > 100 µM (inactive); GI50 (M14): > 100 µM (inactive); GI50 (SW-620): > 10 µM (inactive); GI50 (IGROV-1): 99.1 µM (inactive); GI50 (MCF7): 25.2 µM (inactive); GI50 (HOP-62): > 100 µM (inactive); GI50 (LOX IMVI): 50.7 µM (inactive); GI50 (U-251): 34.6 µM (inactive); GI50 (BT-549): 42 µM (inactive); GI50 (EKVX): > 100 µM (inactive); GI50 (SF-268): 71.8 µM (inactive); GI50 (CCRF-CEM): 67.1 µM (inactive); GI50 (786-0): > 100 µM (inactive); GI50 (MDA-MB-435): 53.5 µM (inactive); GI50 (PC-3): > 100 µM (inactive); GI50 (ACHN): > 100 µM (inactive); GI50 (SF-539): 32.6 µM (inactive); GI50 (UACC-62): 29 µM (inactive); GI50 (HCT-116): 59.8 µM (inactive); GI50 (KM12): 50.4 µM (inactive); GI50 (A549): 83.8 µM (inactive); GI50 (OVCAR-5): > 100 µM (inactive); GI50 (NCI/ADR-RES): > 100 µM (inactive); GI50 (T47D): 24.5 µM (inactive); GI50 (SK-OV-3): > 10 µM (inactive); GI50 (MOLT-4): 60.8 µM (inactive); GI50 (HL-60): 73.8 µM (inactive); GI50 (SNB-19): > 100 µM (inactive); GI50 (OVCAR-4): 77.6 µM (inactive); GI50 (A498): > 100 µM (inactive); GI50 (HT-29): 68.4 µM (inactive); GI50 (MDA-MB-231): > 100 µM (inactive); GI50 (NCI-H522): > 100 µM (inactive); GI50 (DU-145): > 100 µM (inactive); GI50 (COLO 205): > 100 µM (inactive); GI50 (OVCAR-3): > 100 µM (inactive); GI50 (Hs-578T): 58.9 µM (inactive); GI50 (OVCAR-8): > 100 µM (inactive); GI50 (RPMI-8226): > 100 µM (inactive); GI50 (NCI-H23): > 100 µM (inactive); GI50 (SK-MEL-28): > 100 µM (inactive); GI50 (UACC-257): > 100 µM (inactive); GI50 (SK-MEL-5): 30.1 µM (inactive); GI50 (UO-31): 32.8 µM (inactive); GI50 (TK-10): > 100 µM (inactive); GI50 (SNB-75): 22 µM (inactive)
